Here are results for 14 compounds from PubChem BioAssay (NCI).

Test systems include UACC-62 melanoma; OVCAR-5 ovarian; UO-31 renal; HT29 colon; BT-549 breast; SK-OV-3 ovarian; SN12C renal; MCF7 breast; MOLT-4 leukemia; HL-60(TB) leukemia.
Holding throughout (experiment): NCI anticancer screen, dose series, 48 h

Several values for one entry are separate records, joined by “and”; a condition that tells them apart may be missing. Equal values may be shown once.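 Test compounds were applied to cells in 96-well plates for 48 hours at 5 doses. At the GI50, growth is halved. The concentration for full growth arrest is given as TGI.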

Consider `CCCCCCCCCCCCCCCCCCOc1ccccc1CC(=O)NCC[N+]1(C)CCOCC1`, for which the GI50 with UACC-62 melanoma was 4.31 µM; in the assay with OVCAR-5 ovarian it was 1.89 µM; in the assay with UO-31 renal, 5.83 µM; with HT29 colon, 2.05 µM; in the assay with BT-549 breast, 3.57 µM; in the assay with SK-OV-3 ovarian, 13.9 µM. Also, the values for the GI50 in the assay on SN12C renal and in the assay with MCF7 breast were 2.26 µM and 2.71 µM, respectively. In addition, the TGI with UACC-62 melanoma came out at 30.7 µM; in the assay with OVCAR-5 ovarian it was 4.85 µM; with UO-31 renal, 37.2 µM; in the assay with HT29 colon, 5.19 µM; in the assay on BT-549 breast, 74 µM; with SK-OV-3 ovarian, 32.4 µM. In addition, the figures for the TGI in the assay with SN12C renal and in the assay on MCF7 breast were 6.21 µM and 9.34 µM, respectively.
Regarding `CN(C)C(=O)C(F)(F)C(c1ccc(F)cc1)C1C(=O)N(C)C(=O)N(C)C1=O` (stereo unspecified), the TGI in the assay on UACC-62 melanoma, with OVCAR-5 ovarian, in the assay on UO-31 renal, with MOLT-4 leukemia, in the assay with BT-549 breast and in the assay with SK-OV-3 ovarian was above 100 µM in each case. The compound further showed a TGI in the assay with MCF7 breast above 100 µM.
For the compound `c1c[nH]c(-c2cccc3nsnc23)c1`, the TGI in the assay on UACC-62 melanoma, with OVCAR-5 ovarian, with UO-31 renal, in the assay on MOLT-4 leukemia, with HT29 colon and in the assay with BT-549 breast was above 100 µM throughout. Moreover, the TGI in the assay on SK-OV-3 ovarian, in the assay on SN12C renal and in the assay with MCF7 breast was above 100 µM in each case.
For the compound `CCOC(=O)/C=C/c1nc(C#N)c(N)o1`, the TGI with UACC-62 melanoma, in the assay on OVCAR-5 ovarian, in the assay on HL-60(TB) leukemia, in the assay with UO-31 renal, in the assay on MOLT-4 leukemia and in the assay on HT29 colon was above 100 µM in each case. Further, the TGI in the assay with SK-OV-3 ovarian, in the assay with SN12C renal and in the assay with MCF7 breast was above 100 µM each time.
Turning to `Nc1ncnc2c1nnn2C1C=CC(CP(=O)(O)O)C1` (stereo unspecified), the TGI in the assay on UACC-62 melanoma, in the assay on OVCAR-5 ovarian, with HL-60(TB) leukemia, in the assay on UO-31 renal, with MOLT-4 leukemia and with HT29 colon was above 100 µM throughout. The TGI in the assay on SK-OV-3 ovarian, with SN12C renal and in the assay with MCF7 breast was above 100 µM throughout.
As to `CCc1c(O)cc(=O)oc1-c1ccc(OC)c(OC)c1`, the TGI in the assay with UACC-62 melanoma, with OVCAR-5 ovarian, in the assay on UO-31 renal, with MOLT-4 leukemia, with HT29 colon and in the assay on BT-549 breast was above 100 µM throughout. In addition, the TGI in the assay on SK-OV-3 ovarian, with SN12C renal and in the assay on MCF7 breast was above 100 µM in each case.
Turning to `CC(=O)O[C@@H](c1nccn1Cc1ccccc1)[C@H]1OC(C)(C)O[C@@H]1[C@H]1COC(C)(C)O1`, the TGI in the assay on UACC-62 melanoma, in the assay with OVCAR-5 ovarian, in the assay with HL-60(TB) leukemia, in the assay on UO-31 renal, in the assay on MOLT-4 leukemia and in the assay on HT29 colon was above 100 µM in each case. In addition, the TGI in the assay with BT-549 breast, in the assay on SN12C renal and in the assay on MCF7 breast was above 100 µM throughout.
For the compound `O=C(COc1ccc(OCC(=O)N/N=C/c2ccc(-c3ccc(Cl)cc3Cl)o2)c(Cl)c1)N/N=C/c1ccc(-c2ccc(Cl)cc2Cl)o1`, the TGI in the assay on UACC-62 melanoma is above 100 µM; in the assay with OVCAR-5 ovarian it was above 100 µM; with HL-60(TB) leukemia, 70.6 µM; with UO-31 renal, above 100 µM; with MOLT-4 leukemia, 5.5 µM; in the assay on HT29 colon, above 100 µM. For the same compound, the TGI with BT-549 breast, in the assay on SN12C renal and with MCF7 breast was above 100 µM each time.
On to `Cc1c2ccnc(C(N)=O)c2c(C)c2c1[nH]c1ccccc12`, for which the TGI in the assay on UACC-62 melanoma is 15.8 µM and 20.4 µM; in the assay with OVCAR-5 ovarian it was 37.4 µM and 33.3 µM; in the assay on HL-60(TB) leukemia, 38.3 µM and > 100 µM; with UO-31 renal it was 25.2 µM and 21.7 µM; with MOLT-4 leukemia it was 25.1 µM and 12.9 µM; in the assay with HT29 colon, 23.2 µM and 20.4 µM. Also, the TGI is 23.9 µM and 34.3 µM in the assay on SK-OV-3 ovarian; 27.9 µM and 31.6 µM in the assay on SN12C renal; 32 µM in the assay with MCF7 breast. Also, the GI50 in the assay with OVCAR-5 ovarian is 6.41 µM; with HL-60(TB) leukemia, 4.36 µM; in the assay on UO-31 renal, 5.6 µM; with HT29 colon, 4.12 µM; in the assay on SK-OV-3 ovarian, 14.1 µM; with SN12C renal, 5.44 µM.
For `CC1CC(N2CCOCC2)=Nc2ccccc2N1C` (stereo unspecified), the TGI in the assay on UACC-62 melanoma, in the assay with OVCAR-5 ovarian, in the assay with HL-60(TB) leukemia, in the assay on UO-31 renal, with MOLT-4 leukemia and in the assay with HT29 colon was above 100 µM in each case. In addition, the TGI with BT-549 breast, in the assay on SK-OV-3 ovarian and in the assay on SN12C renal was above 100 µM each time.
For `COCOc1ccc(C(=O)Oc2cccc3c2OC(C)(C)O3)c(OCOC)c1`, the TGI is 95.7 µM with UACC-62 melanoma; above 100 µM in the assay with OVCAR-5 ovarian; 19 µM in the assay with HL-60(TB) leukemia; above 100 µM with UO-31 renal; above 100 µM in the assay with MOLT-4 leukemia; above 100 µM in the assay on HT29 colon. Moreover, the TGI with SK-OV-3 ovarian, in the assay on SN12C renal and in the assay with MCF7 breast was above 100 µM throughout.
For the compound `COc1ccc(N=Nc2c(-c3c(OC)cc4occc4c3OC)[nH]c(=O)c(C#N)c2C)cc1`, the TGI in the assay with UACC-62 melanoma, in the assay with OVCAR-5 ovarian, with HL-60(TB) leukemia, in the assay with UO-31 renal, with MOLT-4 leukemia and with HT29 colon was above 100 µM throughout. The TGI with SK-OV-3 ovarian, in the assay on SN12C renal and in the assay on MCF7 breast was above 100 µM in each case.
Consider `CN(/N=C1\C(=O)Nc2ccccc21)c1ccccc1`, for which the TGI in the assay with UACC-62 melanoma, in the assay with OVCAR-5 ovarian, in the assay with HL-60(TB) leukemia, with UO-31 renal, in the assay with MOLT-4 leukemia and with HT29 colon was above 100 µM each time. Moreover, the TGI with SK-OV-3 ovarian and in the assay with MCF7 breast was above 100 µM in each case.
For the compound `S=C(Cc1ccc2c(c1)Sc1ccccc1O2)N1CCOCC1`, the TGI with UACC-62 melanoma, with OVCAR-5 ovarian, with HL-60(TB) leukemia, with UO-31 renal, in the assay on MOLT-4 leukemia and with HT29 colon was above 100 µM in each case. Further, the TGI in the assay on SK-OV-3 ovarian, with SN12C renal and in the assay with MCF7 breast was above 100 µM in each case.
